From US20240059671A1, “TYROSINE KINASE 2 (TYK2) DEGRADATION COMPOUNDS AND METHODS OF USE” (CULLGEN (SHANGHAI), INC., priority 2020, published 2024)

Biological target: TYK2 (Homo sapiens, UniProt P29597)
Experiment: TYK2 protein degradation in MOLT-4 cells by immunoblotting
Assay type: cell-based
Design: endogenous in cells; host or cells: MOLT-4
Conditions: MOLT-4 cells, 24 hours
In short: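 Percent TYK2 degradation came from densitometry of chemiluminescent immunoblots of RIPA lysates. Before lysis, MOLT-4 cells had been treated for 24 h with each compound at 0.5 or 5 μM.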

TYK2, sequence (P29597 whole entry): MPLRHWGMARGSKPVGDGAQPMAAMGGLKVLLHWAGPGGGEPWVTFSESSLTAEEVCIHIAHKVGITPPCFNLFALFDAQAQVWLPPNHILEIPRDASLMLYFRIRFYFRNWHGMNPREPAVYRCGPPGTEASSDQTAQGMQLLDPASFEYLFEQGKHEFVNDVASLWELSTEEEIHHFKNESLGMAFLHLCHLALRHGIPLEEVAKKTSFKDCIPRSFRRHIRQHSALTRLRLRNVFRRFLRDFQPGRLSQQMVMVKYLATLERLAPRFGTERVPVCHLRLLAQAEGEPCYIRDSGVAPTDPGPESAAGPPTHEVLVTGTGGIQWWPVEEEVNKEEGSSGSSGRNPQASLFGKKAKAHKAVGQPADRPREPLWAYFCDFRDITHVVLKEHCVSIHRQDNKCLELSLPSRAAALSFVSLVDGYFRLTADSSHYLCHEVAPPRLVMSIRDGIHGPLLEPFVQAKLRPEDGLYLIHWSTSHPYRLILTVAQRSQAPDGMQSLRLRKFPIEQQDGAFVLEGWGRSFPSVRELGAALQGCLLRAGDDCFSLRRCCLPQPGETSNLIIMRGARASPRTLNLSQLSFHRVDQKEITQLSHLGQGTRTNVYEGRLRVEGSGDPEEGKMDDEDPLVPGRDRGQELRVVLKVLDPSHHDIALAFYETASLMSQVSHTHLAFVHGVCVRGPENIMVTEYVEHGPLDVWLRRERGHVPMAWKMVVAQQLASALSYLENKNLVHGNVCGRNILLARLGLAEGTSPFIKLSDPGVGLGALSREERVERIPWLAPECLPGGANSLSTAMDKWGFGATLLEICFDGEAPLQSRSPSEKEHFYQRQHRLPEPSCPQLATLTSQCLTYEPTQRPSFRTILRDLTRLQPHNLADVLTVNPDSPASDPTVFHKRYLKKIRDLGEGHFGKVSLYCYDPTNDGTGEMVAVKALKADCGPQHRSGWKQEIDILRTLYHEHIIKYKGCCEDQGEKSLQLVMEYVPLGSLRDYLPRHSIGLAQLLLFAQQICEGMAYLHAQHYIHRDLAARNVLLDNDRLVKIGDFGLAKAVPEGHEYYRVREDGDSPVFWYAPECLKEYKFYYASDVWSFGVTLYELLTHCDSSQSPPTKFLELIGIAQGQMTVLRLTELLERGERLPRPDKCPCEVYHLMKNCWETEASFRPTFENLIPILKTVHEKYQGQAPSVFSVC

| TYK2 Degradation (MOLT-4, 0.5 μM) | TYK2 Degradation (0.5 μM) [%] | TYK2 Degradation (5 μM) [%] | SMILES | TYK2 Degradation (MOLT-4, 5 μM) |
| --- | --- | --- | --- | --- |
| A (A: ≥60% TYK2 degradation) |  |  | CNC(=O)c1nnc(Nc2ccc(N3CCN(C(=O)CCCCCCC(=O)N[C@H](C(=O)N4C[C@H](O)C[C@H]4C(=O)NCc4ccc(-c5scnc5C)cc4)C(C)(C)C)CC3)cn2)cc1Nc1cccc(-c2ncn(C)n2)c1OC [CPD-100, 6-((5-(4-(8-(((S)-1-((2S,4R)-4-hydroxy-2-((4-(4-methylthiazol-5-yl)benzyl)carbamoyl)pyrrolidin-1-yl)-3,3-dimethyl-1-oxobutan-2-yl)amino)-8-oxooctanoyl)piperazin-1-yl)pyridin-2-yl)amino)-4-((2-methoxy-3-(1-methyl-1H-1,2,4-triazol-3-yl)phenyl)amino)-N-methylpyridazine-3-carboxamide] | B (B: <60% TYK2 degradation, and >20% TYK2 degradation) |
| C (C: ≤20% TYK2 degradation) |  |  | CNC(=O)c1nnc(NC(=O)CNC(=O)CCNC(=O)C[C@H](NC(=O)[C@@H]2C[C@@H](O)CN2C(=O)[C@@H](NC(=O)C2(F)CC2)C(C)(C)C)c2ccc(-c3scnc3C)cc2)cc1Nc1cccc(-c2ncn(C)n2)c1OC [CPD-087, 6-(2-(3-((S)-3-((2S,4R)-1-((S)-2-(1-Fluorocyclopropane-1-carboxamido)-3,3-dimethylbutanoyl)-4-hydroxypyrrolidine-2-carboxamido)-3-(4-(4-methylthiazol-5-yl)phenyl)propanamido)propanamido)acetamido)-4-((2-methoxy-3-(1-methyl-1H-1,2,4-triazol-3-yl)phenyl)amino)-N-methylpyridazine-3-carboxamide] |  |
| A (A: ≥60% TYK2 degradation) |  |  | CNC(=O)c1nnc(Nc2ccc(N3CCN(C(=O)CCCCCC(=O)N[C@H](C(=O)N4C[C@H](O)C[C@H]4C(=O)NCc4ccc(-c5scnc5C)cc4)C(C)(C)C)CC3)cn2)cc1Nc1cccc(-c2ncn(C)n2)c1OC [CPD-099, 6-((5-(4-(7-(((S)-1-((2S,4R)-4-hydroxy-2-((4-(4-methylthiazol-5-yl)benzyl)carbamoyl)pyrrolidin-1-yl)-3,3-dimethyl-1-oxobutan-2-yl)amino)-7-oxoheptanoyl)piperazin-1-yl)pyridin-2-yl)amino)-4-((2-methoxy-3-(1-methyl-JH-1,2,4-triazol-3-yl)phenyl)amino)-N-methylpyridazine-3-carboxamide] | B (B: <60% TYK2 degradation, and >20% TYK2 degradation) |
|  | ≤20 | ≤20 | CNC(=O)c1nnc(NC(=O)CNC(=O)CCC(=O)N[C@H](C(=O)N2C[C@H](O)C[C@H]2C(=O)NCc2ccc(-c3scnc3C)cc2)C(C)(C)C)cc1Nc1cccc(-c2ncn(C)n2)c1OC [CPD-034, N^1—((S)-1-((2S,4R)-4-Hydroxy-2-((4-(4-methylthiazol-5-yl)benzyl)carbamoyl)pyrrolidin-1-yl)-3,3-dimethyl-1-oxobutan-2-yl)-N^4-(2-((5-((2-methoxy-3-(1-methyl-1H-1,2,4-triazol-3-yl)phenyl)amino)-6-(methylcarbamoyl)pyridazin-3-yl)amino)-2-oxoethyl)succinamide] |  |
|  | ≤20 |  | CNC(=O)c1nnc(NC(=O)C2CC2)cc1Nc1cccc(-c2ncn(CCNC(=O)CCCCCNc3cccc4c3C(=O)N(C3CCC(=O)NC3=O)C4=O)n2)c1OC (stereo not shown) [CPD-005, 6-(Cyclopropanecarboxamido)-4-((3-(1-(2-(6-((2-(2,6-dioxopiperidin-3-yl)-1,3-dioxoisoindolin-4-yl)amino)hexanamido)ethyl)-1H-1,2,4-triazol-3-yl)-2-methoxyphenyl)amino)-N-methylpyridazine-3-carboxamide] |  |
|  | ≤20 | ≤20 | CNC(=O)c1nnc(NC(=O)CNC(=O)CCOCCOCCOCCOCCOCCNc2cccc3c2C(=O)N(C2CCC(=O)NC2=O)C3=O)cc1Nc1cccc(-c2ncn(C)n2)c1OC (stereo not shown) [CPD-053, 6-(1-((2-(2,6-Dioxopiperidin-3-yl)-1,3-dioxoisoindolin-4-yl)amino)-18-oxo-3,6,9,12,15-pentaoxa-19-azahenicosan-21-amido)-4-((2-methoxy-3-(1-methyl-1H-1,2,4-triazol-3-yl)phenyl)amino)-N-methylpyridazine-3-carboxamide] |  |
| C (C: ≤20% TYK2 degradation) |  |  | CNC(=O)c1nnc(NC(=O)CNC(=O)CCCCCOc2cc(-c3scnc3C)ccc2CNC(=O)[C@@H]2C[C@@H](O)CN2C(=O)[C@@H](NC(=O)C2(F)CC2)C(C)(C)C)cc1Nc1cccc(-c2ncn(C)n2)c1OC [CPD-105, 6-(2-(6-(2-(((2S,4R)-1-((S)-2-(1-Fluorocyclopropane-1-carboxamido)-3,3-dimethylbutanoyl)-4-hydroxypyrrolidine-2-carboxamido)methyl)-5-(4-methylthiazol-5-yl)phenoxy)hexanamido)acetamido)-4-((2-methoxy-3-(1-methyl-1H-1,2,4-triazol-3-yl)phenyl)amino)-N-methylpyridazine-3-carboxamide] | C (C: ≤20% TYK2 degradation) |
|  | ≤20 | ≤20 | CNC(=O)c1nnc(NC(=O)CNC(=O)CCCNc2ccc3c(c2)C(=O)N(C2CCC(=O)NC2=O)C3=O)cc1Nc1cccc(-c2ncn(C)n2)c1OC (stereo not shown) [CPD-056, 6-(2-(4-((2-(2,6-Dioxopiperidin-3-yl)-1,3-dioxoisoindolin-5-yl)amino)butanamido)acetamido)-4-((2-methoxy-3-(1-methyl-1H-1,2,4-triazol-3-yl)phenyl)amino)-N-methylpyridazine-3-carboxamide] |  |
| A (A: ≥60% TYK2 degradation) |  |  | CNC(=O)c1nnc(NC(=O)CNC(=O)CCCCCCCCCCOc2cc(-c3scnc3C)ccc2CNC(=O)[C@@H]2C[C@@H](O)CN2C(=O)[C@@H](NC(=O)C2(F)CC2)C(C)(C)C)cc1Nc1cccc(-c2ncn(C)n2)c1OC [CPD-110, 6-(2-(11-(2-(((2S,4R)-1-((S)-2-(1-fluorocyclopropane-1-carboxamido)-3,3-dimethylbutanoyl)-4-hydroxypyrrolidine-2-carboxamido)methyl)-5-(4-methylthiazol-5-yl)phenoxy)undecanamido)acetamido)-4-((2-methoxy-3-(1-methyl-1H-1,2,4-triazol-3-yl)phenyl)amino)-N-methylpyridazine-3-carboxamide] | A (A: ≥60% TYK2 degradation) |
|  | ≤20 | ≤20 | CNC(=O)c1nnc(NC(=O)C2CC2)cc1Nc1cccc(-c2ncn(CCNC(=O)CCC(=O)N[C@H](C(=O)N3C[C@H](O)C[C@H]3C(=O)NCc3ccc(-c4scnc4C)cc3)C(C)(C)C)n2)c1OC [CPD-075, N^1-(2-(3-(3-((6-(Cyclopropanecarboxamido)-3-(methylcarbamoyl)pyridazin-4-yl)amino)-2-methoxyphenyl)-1H-1,2,4-triazol-1-yl)ethyl)-N^4-((S)-1-((2S,4R)-4-hydroxy-2-((4-(4-methylthiazol-5-yl)benzyl)carbamoyl)pyrrolidin-1-yl)-3,3-dimethyl-1-oxobutan-2-yl)succinamide] |  |
|  | ≤20 |  | CNC(=O)c1nnc(NC(=O)C2CC2)cc1Nc1cccc(-c2ncn(CCNC(=O)CCCCNc3ccc4c(c3)C(=O)N(C3CCC(=O)NC3=O)C4=O)n2)c1OC (stereo not shown) [CPD-016, 6-(Cyclopropanecarboxamido)-4-((3-(1-(2-(5-((2-(2,6-dioxopiperidin-3-yl)-1,3-dioxoisoindolin-5-yl)amino)pentanamido)ethyl)-1H-1,2,4-triazol-3-yl)-2-methoxyphenyl)amino)-N-methylpyridazine-3-carboxamide] |  |

| SMILES | TYK2 Degradation (MOLT-4, 0.5 μM) | TYK2 Degradation (0.5 μM) [%] | TYK2 Degradation (5 μM) [%] | TYK2 Degradation (MOLT-4, 5 μM) |
| --- | --- | --- | --- | --- |
| CNC(=O)c1nnc(NC(=O)CNC(=O)CCCCCCCCCNC(=O)C[C@H](NC(=O)[C@@H]2C[C@@H](O)CN2C(=O)[C@@H](NC(=O)C2(F)CC2)C(C)(C)C)c2ccc(-c3scnc3C)cc2)cc1Nc1cccc(-c2ncn(C)n2)c1OC [CPD-094, 6-(2-(10-((S)-3-((2S,4R)-1-((S)-2-(1-Fluorocyclopropane-1-carboxamido)-3,3-dimethylbutanoyl)-4-hydroxypyrrolidine-2-carboxamido)-3-(4-(4-methylthiazol-5-yl)phenyl)propanamido)decanamido)acetamido)-4-((2-methoxy-3-(1-methyl-1H-1,2,4-triazol-3-yl)phenyl)amino)-N-methylpyridazine-3-carboxamide] | B (B: <60% TYK2 degradation, and >20% TYK2 degradation) |  |  | B (B: <60% TYK2 degradation, and >20% TYK2 degradation) |
| CNC(=O)c1nnc(Nc2ccc(N3CCN(C(=O)CC(=O)N[C@H](C(=O)N4C[C@H](O)C[C@H]4C(=O)NCc4ccc(-c5scnc5C)cc4)C(C)(C)C)CC3)cn2)cc1Nc1cccc(-c2ncn(C)n2)c1OC [CPD-111, 6-((5-(4-(3-(((S)-1-((2S,4R)-4-Hydroxy-2-((4-(4-methylthiazol-5-yl)benzyl)carbamoyl)pyrrolidin-1-yl)-3,3-dimethyl-1-oxobutan-2-yl)amino)-3-oxopropanoyl)piperazin-1-yl)pyridin-2-yl)amino)-4-((2-methoxy-3-(1-methyl-1H-1,2,4-triazol-3-yl)phenyl)amino)-N-methylpyridazine-3-carboxamide] | B (B: <60% TYK2 degradation, and >20% TYK2 degradation) |  |  | B (B: <60% TYK2 degradation, and >20% TYK2 degradation) |
| CNC(=O)c1nnc(NC(=O)CNC(=O)CCCCCCC(=O)N[C@H](C(=O)N2C[C@H](O)C[C@H]2C(=O)N[C@@H](C)c2ccc(-c3scnc3C)cc2)C(C)(C)C)cc1Nc1cccc(-c2ncn(C)n2)c1OC [CPD-083, N^1-((S)-1-((2S,4R)-4-Hydroxy-2-(((S)-1-(4-(4-methylthiazol-5-yl)phenyl)ethyl)carbamoyl)pyrrolidin-1-yl)-3,3-dimethyl-1-oxobutan-2-yl)-N^8-(2-((5-((2-methoxy-3-(1-methyl-1H-1,2,4-triazol-3-yl)phenyl)amino)-6-(methylcarbamoyl)pyridazin-3-yl)amino)-2-oxoethyl)octanediamide] | B (B: <60% TYK2 degradation, and >20% TYK2 degradation) |  |  | A (A: ≥60% TYK2 degradation) |
